In the test the target is human IRAK4 kinase domain (aa 154-460) (Homo sapiens (Human), UniProt Q9NWZ3). Description: IRAK4 Enzymatic DELFIA Assay, Protocol B. It counts as biochemical. To be noted: human IRAK4 kinase domain (aa 154-460), 0.6 mM ATP (KM); read-out: IRAK4 DELFIA Protocol B IC50. An excerpt:
IRAK4 Enzymatic DELFIA Assay, Protocol B.
human IRAK4 kinase domain (aa 154-460), sequence (Q9NWZ3 154-460): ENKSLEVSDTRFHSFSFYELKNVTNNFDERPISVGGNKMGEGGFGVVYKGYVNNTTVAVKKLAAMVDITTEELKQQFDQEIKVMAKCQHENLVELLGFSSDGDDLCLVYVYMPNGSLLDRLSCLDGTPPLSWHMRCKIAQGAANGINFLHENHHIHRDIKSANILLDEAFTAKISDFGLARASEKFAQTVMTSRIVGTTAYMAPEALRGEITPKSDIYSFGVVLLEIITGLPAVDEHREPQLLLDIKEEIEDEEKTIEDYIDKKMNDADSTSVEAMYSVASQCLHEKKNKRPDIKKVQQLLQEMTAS
For the molecule `CC(C)Oc1cc2c(OC[C@H]3[C@@H]4CNC[C@@H]43)nccc2cc1C(N)=O` [Example 42, 1-[(1R,5S,6r)-3-azabicyclo[3.1.0]hex-6-ylmethoxy]-7-(propan-2-yloxy)isoquinoline-6-carboxamide], the IC50 (as a rule, the concentration needed to halve the response being measured) is 219 nM.
As for `CC(C)Oc1cc2c(OCC3CCCCN3)nccc2cc1C(N)=O` (stereo not shown) [Example 43, 1-(piperidin-2-ylmethoxy)-7-(propan-2-yloxy)isoquinoline-6-carboxamide], the figure is 3320 nM.
As for `CC(C)Oc1cc2c(OCC3CN(C)CCO3)nccc2cc1C(N)=O` (stereo not shown) [Example 44, 1-[(4-methylmorpholin-2-yl)methoxy]-7-(propan-2-yloxy)isoquinoline-6-carboxamide], the figure is 4260 nM; as for `CC(C)Oc1cc2c(OCC3CCCN(C)C3)nccc2cc1C(N)=O` (stereo not shown) [Example 45, 1-[(1-methylpiperidin-3-yl)methoxy]-7-(propan-2-yloxy)isoquinoline-6-carboxamide], 1920 nM; as for `CC(C)Oc1cc2c(OC[C@H]3CNC[C@@H]3C(F)(F)F)nccc2cc1C(N)=O` [Example 46, 7-(propan-2-yloxy)-1-{[(3R,4R)-4-(trifluoromethyl)pyrrolidin-3-yl]methoxy}isoquinoline-6-carboxamide], 237 nM.
Take `CC(C)Oc1cc2c(OC[C@H]3CNCCO3)nccc2cc1C(N)=O` [Example 47, 1-[(2R)-morpholin-2-ylmethoxy]-7-(propan-2-yloxy)isoquinoline-6-carboxamide]: the IC50 came to 2790 nM.
In the case of `CC(C)Oc1cc2c(OC[C@@H]3CCCNC3)nccc2cc1C(N)=O` [Example 48, 1-[(3R)-piperidin-3-ylmethoxy]-7-(propan-2-yloxy)isoquinoline-6-carboxamide] it was 366 nM; in that of `CC(C)Oc1cc2c(OC[C@H]3CCNC3)nccc2cc1C(N)=O` [Example 49, 7-(propan-2-yloxy)-1-[(3S)-pyrrolidin-3-ylmethoxy]isoquinoline-6-carboxamide], 451 nM.
In the case of `CC(C)Oc1cc2c(OC[C@H]3CCNC3)ccnc2cc1C(N)=O` [Example 50, 6-(propan-2-yloxy)-4-[(3S)-pyrrolidin-3-ylmethoxy]quinoline-7-carboxamide] it was 701 nM; in that of `CC(C)Oc1cc2c(OC[C@@H]3CNCCO3)ccnc2cc1C(N)=O` [Example 51, 4-[(2S)-morpholin-2-ylmethoxy]-6-(propan-2-yloxy)quinoline-7-carboxamide], 2410 nM.
In the case of `CC(C)Oc1cc2c(OC3CCC34CCNCC4)ccnc2cc1C(N)=O` (stereo not shown) [Example 52, 4-(7-azaspiro[3.5]non-1-yloxy)-6-(propan-2-yloxy)quinoline-7-carboxamide] it was 4240 nM; in that of `CC(C)Oc1cc2c(OC[C@H]3CNCCO3)ccnc2cc1C(N)=O` [Example 53, 4-[(2R)-morpholin-2-ylmethoxy]-6-(propan-2-yloxy)quinoline-7-carboxamide], 2380 nM; in that of `CC(C)Oc1cc2c(OCC3(F)CCNCC3)ccnc2cc1C(N)=O` [Example 54, 4-[(4-fluoropiperidin-4-yl)methoxy]-6-(propan-2-yloxy)quinoline-7-carboxamide], 2440 nM.
For `CC(C)Oc1cc2c(OC[C@@]3(C)CNC[C@@H]3C)ccnc2cc1C(N)=O` [Example 55, 4-{[(3R,4R)-3,4-dimethylpyrrolidin-3-yl]methoxy}-6-(propan-2-yloxy)quinoline-7-carboxamide], the IC50 came out at 264 nM.
For the molecule `CC(C)Oc1cc2c(OCC3(C)CCNCC3)ccnc2cc1C(N)=O` [Example 56, 4-[(4-methylpiperidin-4-yl)methoxy]-6-(propan-2-yloxy)quinoline-7-carboxamide], the IC50 worked out at 1490 nM.
As for `CC(C)Oc1cc2c(OC[C@H]3CNC(=O)O3)ccnc2cc1C(N)=O` [Example 57, 4-{[(5R)-2-oxo-1,3-oxazolidin-5-yl]methoxy}-6-(propan-2-yloxy)quinoline-7-carboxamide], the figure is 5.8 nM; as for `CC(C)Oc1cc2c(OCC3(C)CCCNC3)ccnc2cc1C(N)=O` (stereo not shown) [Example 58, 4-[(3-methylpiperidin-3-yl)methoxy]-6-(propan-2-yloxy)quinoline-7-carboxamide], 144 nM.
For `CC(C)Oc1cc2c(OCC3CCCNC3)ccnc2cc1C(N)=O` (stereo not shown) [Example 59, 4-(piperidin-3-ylmethoxy)-6-(propan-2-yloxy)quinoline-7-carboxamide], the IC50 was found to be 243 nM.
As to `CC(C)Oc1cc2c(OC[C@H]3CCCN3C(=O)CC#N)nccc2cc1C(N)=O` [Example 61, 1-{[(2R)-1-(cyanoacetyl)pyrrolidin-2-yl]methoxy}-7-(propan-2-yloxy)isoquinoline-6-carboxamide], the IC50 came to 249 nM.
As for `CC(C)Oc1cc2c(OCC3CCN(C(=O)CC#N)CC3)nccc2cc1C(N)=O` [Example 62, 1-{[1-(cyanoacetyl)piperidin-4-yl]methoxy}-7-(propan-2-yloxy)isoquinoline-6-carboxamide], the figure is 1290 nM; as for `CC(C)Oc1cc2c(OC[C@@H]3CCCN3C(=O)CC#N)nccc2cc1C(N)=O` [Example 63, 1-{[(2S)-1-(cyanoacetyl)pyrrolidin-2-yl]methoxy}-7-(propan-2-yloxy)isoquinoline-6-carboxamide], 252 nM; as for `CC(C)Oc1cc2c(OC[C@H]3COCCN3C(=O)CC#N)nccc2cc1C(N)=O` [Example 64, 1-{[(3R)-4-(cyanoacetyl)morpholin-3-yl]methoxy}-7-(propan-2-yloxy)isoquinoline-6-carboxamide], 641 nM.
As for `CC(C)Oc1cc2c(OCC3(NC(=O)CC#N)CCCC3)nccc2cc1C(N)=O` [Example 65, 1-({1-[(cyanoacetyl)amino]cyclopentyl}methoxy)-7-(propan-2-yloxy)isoquinoline-6-carboxamide], the figure is 563 nM.
As for `CC(C)Oc1cc2c(OC[C@H]3CCN(C(=O)CC#N)C3)nccc2cc1C(N)=O` [Example 66, 1-{[(3S)-1-(cyanoacetyl)pyrrolidin-3-yl]methoxy}-7-(propan-2-yloxy)isoquinoline-6-carboxamide], the figure is 255 nM.
Take `CC(C)Oc1cc2c(OC[C@@H]3CCCN(C(=O)CC#N)C3)nccc2cc1C(N)=O` [Example 67, 1-{[(3R)-1-(cyanoacetyl)piperidin-3-yl]methoxy}-7-(propan-2-yloxy)isoquinoline-6-carboxamide]: the IC50 amounted to 1730 nM.
As for `CC(C)Oc1cc2c(O[C@@H]3C[C@H]4C[C@@H]3CN(C(=O)CC#N)C4)nccc2cc1C(N)=O` [Example 68, 1-{[(1R,5R,6R)-3-(cyanoacetyl)-3-azabicyclo[3.2.1]oct-6-yl]oxy}-7-(propan-2-yloxy)isoquinoline-6-carboxamide], the figure is 320 nM; as for `CC(C)Oc1cc2c(OC[C@@H]3CCN(C(=O)CC#N)C3)nccc2cc1C(N)=O` [Example 70, 1-{[(3R)-1-(cyanoacetyl)pyrrolidin-3-yl]methoxy}-7-(propan-2-yloxy)isoquinoline-6-carboxamide], 423 nM.
In the case of `CC(C)Oc1cc2c(OC3C[C@@H]4CN[C@H]3C4)nccc2cc1C(N)=O` (stereo partly drawn) [Example 72, 1-[(1S,4R)-2-azabicyclo[2.2.1]hept-6-yloxy]-7-(propan-2-yloxy)isoquinoline-6-carboxamide] it was 2620 nM; in that of `CC(C)Oc1cc2c(O[C@H]3C[C@@H]4C[C@H]3CN4C(=O)CC#N)nccc2cc1C(N)=O` [Example 74, 1-{[(1S,4S,5S)-2-(cyanoacetyl)-2-azabicyclo[2.2.1]hept-5-yl]oxy}-7-(propan-2-yloxy)isoquinoline-6-carboxamide], 43 nM.
As for `CC(C)Oc1cc2c(OC[C@@H]3CN(C(=O)CC#N)CCO3)nccc2cc1C(N)=O` [Example 75, 1-{[(2S)-4-(cyanoacetyl)morpholin-2-yl]methoxy}-7-(propan-2-yloxy)isoquinoline-6-carboxamide], the figure is 4040 nM; as for `CC(C)Oc1cc2c(OCC3(F)CCN(C(=O)CC#N)CC3)nccc2cc1C(N)=O` [Example 76, 1-{[1-(cyanoacetyl)-4-fluoropiperidin-4-yl]methoxy}-7-(propan-2-yloxy)isoquinoline-6-carboxamide], 1720 nM; as for `CC(C)Oc1cc2c(OC[C@@]34C[C@@H]3CN(C(=O)CC#N)C4)nccc2cc1C(N)=O` [Example 77, 1-{[(1S,5S)-3-(cyanoacetyl)-3-azabicyclo[3.1.0]hex-1-yl]methoxy}-7-(propan-2-yloxy)isoquinoline-6-carboxamide], 468 nM.
`CC(C)Oc1cc2c(OC[C@H]3CN(C(=O)CC#N)CCO3)nccc2cc1C(N)=O` [Example 78, 1-{[(2R)-4-(cyanoacetyl)morpholin-2-yl]methoxy}-7-(propan-2-yloxy)isoquinoline-6-carboxamide]: the 50% inhibitory concentration (IC50) is 4740 nM.
In the case of `CC(C)Oc1cc2c(O[C@H]3CC[C@@H]4CN(C(=O)CC#N)C[C@@H]43)nccc2cc1C(N)=O` [Example 79, 1-{[(3aR,4S,6aS)-2-(cyanoacetyl)octahydrocyclopenta[c]pyrrol-4-yl]oxy}-7-(propan-2-yloxy)isoquinoline-6-carboxamide] it was 457 nM; in that of `CC[C@H]1CN(C(=O)CC#N)C[C@@H]1COc1nccc2cc(C(N)=O)c(OC(C)C)cc12` [Example 80, 1-{[(3R,4R)-1-(cyanoacetyl)-4-ethylpyrrolidin-3-yl]methoxy}-7-(propan-2-yloxy)isoquinoline-6-carboxamide], 333 nM.
In the case of `CC(C)Oc1cc2c(O[C@H]3C[C@@H]4C[C@H]3CN(C(=O)CC#N)C4)nccc2cc1C(N)=O` [Example 81, 1-{[(1S,5S,6S)-3-(cyanoacetyl)-3-azabicyclo[3.2.1]oct-6-yl]oxy}-7-(propan-2-yloxy)isoquinoline-6-carboxamide] it was 479 nM; in that of `CC(C)Oc1cc2c(OCC3(C)CCN(C(=O)CC#N)C3)nccc2cc1C(N)=O` (stereo not shown) [Example 82, 1-{[1-(cyanoacetyl)-3-methylpyrrolidin-3-yl]methoxy}-7-(propan-2-yloxy)isoquinoline-6-carboxamide], 969 nM.
